Laboratory results from patent publication US20240199647A1, “ANTI-VIRAL COMPOUNDS” (Aligos Therapeutics, Inc., priority 2022, published 2024).
Read-outs that look alike come from different tables or passages of the source.

Legend:
[1] = target: SARS-Cov-2 3CLpro (Severe acute respiratory syndrome coronavirus 2, UniProt P0DTD1); experiment: biochemical; settings: Table A, read-out: SARS-Cov-2 (IC50)
[2] = system: SARS-CoV-2 B.1.1.7 lineage; experiment: microbe, parasite or virus in culture; format: cell-based
[3] = system: human beta-coronavirus OC43; experiment: OC43 Coronavirus Assay in HeLa cells (antiviral, cytopathic effect, cell-titer-glo); format: cell-based; settings: Betacoronavirus 1, OC43, HeLa, Table B, OC43 coronavirus in HeLa cells, read-out: EC50
[4] = in vitro; settings: human
[5] = Cytotoxicity in HeLa cells without addition of OC43 virus (in parallel); settings: human, HeLa cells, without OC43 virus
[6] = Severe acute respiratory syndrome coronavirus 2, Table C, SARS-CoV-2 B.1.1.7 in A549-dual_ACE2_TMPRSS2 cells, cells given as a bound, read-out: A549-dual_ACE2_TMPRSS2 (EC50)
[7] = Severe acute respiratory syndrome coronavirus 2, Table C, SARS-CoV-2 B.1.1.7 in A549-dual_ACE2_TMPRSS2 cells, class symbols, read-out: A549-dual_ACE2_TMPRSS2 (EC50)

SMILES | IC50 ([1]; class symbols) [nM] | EC50 [2, 6] [nM] | EC50 ([3]; cells given as a bound) [nM] | CC50 [4] [nM] | CC50 at 6 days [5] [nM] | EC50 [2, 7] [nM] | EC50 ([3]; class symbols) [nM] | EC50 ([2]; Severe acute respiratory syndrome coronavirus 2, read-out: A549-dual_ACE2_TMPRSS2 (EC50)) [nM] | IC50 ([1]; cells given as a bound) [nM]
Cc1nnn(C(CC2CC2)C(=O)N(C)[C@@H](CC2CC2)C(=O)N2C[C@@]3(C[C@H]2C#N)Oc2cc(F)cc(F)c2NC3=O)c1C (relative stereo) [Compound 117, (S*)—N—((S)-1-((2R,5'S)-5′-cyano-5,7-difluoro-3-oxo-3,4-dihydrospiro[benzo[b][1,4]oxazine-2,3′-pyrrolidin]-1′-yl)-3-cyclopropyl-1-oxopropan-2-yl)-3-cyclopropyl-2-(4,5-dimethyl-1H-1,2,3-triazol-1-yl)-N-methylpropanamide] | 200 to 2000 | > 1000 | > 10000 | > 1000 | > 10000 |  |  |  | 
CN(C(=O)[C@H](CC1CC1)NC(=O)C(F)(F)F)[C@@H](CC1CC1)C(=O)N1C[C@]2(C[C@H]1C#N)C(=O)NCc1ccccc12 (single isomer, unassigned) [Compound 122] | < 20 |  |  | > 1000 | > 10000 | < 100 | < 100 |  | 
CC1NC(=O)[C@]2(C[C@@H](C#N)N(C(=O)[C@H](CC3CC3)N(C)C(=O)[C@H](CC3CC3)NC(=O)C(F)(F)F)C2)Oc2ccccc21 (single isomer, unassigned) [Compound 223, (S)—N—((S)-1-((2R,5S*,5'S)-5′-cyano-5-methyl-3-oxo-4,5-dihydro-3H-spiro[benzo[f][1,4]oxazepine-2,3′-pyrrolidin]-1′-yl)-3-cyclopropyl-1-oxopropan-2-yl)-3-cyclopropyl-N-methyl-2-(2,2,2-trifluoroacetamido)propanamide] | 20 to 200 |  |  |  | > 10000 |  | 100 to 1000 |  | 
CN(C(=O)[C@H](CC1CC1)NC(=O)C(F)(F)F)[C@@H](CC1CC1)C(=O)N1C[C@@]2(C[C@H]1C#N)Oc1cc(F)cc(C#N)c1NC2=O (single isomer, unassigned) [Example 35] | 20 to 200 |  |  | > 1000 | > 10000 | 100 to 1000 | 1000 to 10000 |  | 
CN(C(=O)[C@H](CC1CC1)NC(=O)C(F)(F)F)C(CC1CC1)C(=O)N1C[C@@]2(C[C@H]1C#N)Oc1cc(S(C)(=O)=O)ccc1NC2=O (stereo in doubt) [Compound 110, (S)—N—((S)-1-((2R,5'S)-5′-cyano-7-(methylsulfonyl)-3-oxo-3,4-dihydrospiro[benzo[b][1,4]oxazine-2,3′-pyrrolidin]-1′-yl)-3-cyclopropyl-1-oxopropan-2-yl)-3-cyclopropyl-N-methyl-2-(2,2,2-trifluoroacetamido)propanamide] | < 20 | > 1000 |  | > 1000 | > 10000 |  | < 100 |  | 
CC(C)CC(C(=O)N1C[C@]2(C[C@H]1C#N)C(=O)Nc1c3c(nn12)CCCC3)N(C)C(=O)[C@H](C)NC(=O)C(F)(F)F (stereo in doubt) [Example 28, (2S)—N-[(2S)-1-[(3R,5'S)-5′-cyano-2-oxo-6,7,8,9-tetrahydro-1H-spiro[imidazo[1,2-b]indazole-3,3′-pyrrolidin]-1′-yl]-4-methyl-1-oxopentan-2-yl]-N-methyl-2-(2,2,2-trifluoroacetamido)propanamide] | < 20 | > 1000 |  | > 1000 | > 10000 |  | < 100 |  | 
CN(C(=O)[C@H](CC1CC1)NC(=O)C(F)(F)F)C(CC1CC1)C(=O)N1C[C@]2(Cc3ccccc3NC2=O)C[C@H]1C#N (stereo in doubt) [Example 33, (S)—N—((S)-1-((3S,5S)-5-cyano-2′-oxo-1′,4′-dihydro-2′H-spiro[pyrrolidine-3,3′-quinolin]-1-yl)-3-cyclopropyl-1-oxopropan-2-yl)-3-cyclopropyl-N-methyl-2-(2,2,2-trifluoroacetamido)propanamide] | < 20 |  |  | > 1000 | > 10000 | < 100 | 100 to 1000 |  | 
CC(C)C[C@@H](C(=O)N1C[C@]2(CCNC2=O)C[C@H]1C#N)N(C)C(=O)[C@H](C)NC(=O)C(F)(F)F [Compound 8, (S)—N—((S)-1-((3S,5S)-3-cyano-6-oxo-2,7-diazaspiro[4.4]nonan-2-yl)-4-methyl-1-oxopentan-2-yl)-N-methyl-2-(2,2,2-trifluoroacetamido)propanamide] | 20 to 200 |  |  | > 1000 | > 10000 | 1000 to 10000 | 1000 to 10000 |  | 
CC(C)C[C@@H](C(=O)N1C[C@]2(CCCNC2=O)C[C@H]1C#N)N(C)C(=O)[C@H](C)NC(=O)C(F)(F)F [Compound 11] | 20 to 200 |  |  | > 1000 | > 10000 | 100 to 1000 | 1000 to 10000 |  | 
CC(C)C[C@@H](C(=O)N1C[C@@]2(C[C@H]1C#N)N=C(c1ccccc1)NC2=O)N(C)C(=O)[C@H](C)NC(=O)C(F)(F)F [Compound 12, (2S)—N-[(2S)-1-[(5R,8S)-8-cyano-4-oxo-2-phenyl-1,3,7-triazaspiro[4.4]non-1-en-7-yl]-4-methyl-1-oxopentan-2-yl]-N-methyl-2-(2,2,2-trifluoroacetamido)propanamide] | 20 to 200 |  |  | > 1000 | > 10000 | 1000 to 10000 | 1000 to 10000 |  | 
CC(C)C[C@@H](C(=O)N1C[C@@]2(C[C@H]1C#N)CC1(CC1)NC2=O)N(C)C(=O)[C@H](C)NC(=O)C(F)(F)F [Compound 13, (S)—N—((S)-1-((5R,8S)-8-cyano-10-oxo-7,11-diazadispiro[2.1.4^5.2^3]undecan-7-yl)-4-methyl-1-oxopentan-2-yl)-N-methyl-2-(2,2,2-trifluoroacetamido)propanamide] | < 20 |  |  | > 1000 | > 10000 |  | 100 to 1000 | 100 to 1000 | 
CN(C(=O)[C@H](CC1CC1)NC(=O)C(F)(F)F)[C@@H](CC1CC1)C(=O)N1C[C@@]2(C[C@H]1C#N)Oc1ccc(F)cc1NC2=O [Compound 15, (S)—N—((S)-1-((2R,5'S)-5′-cyano-6-fluoro-3-oxo-3,4-dihydrospiro[benzo[b][1,4]oxazine-2,3′-pyrrolidin]-1′-yl)-3-cyclopropyl-1-oxopropan-2-yl)-3-cyclopropyl-N-methyl-2-(2,2,2-trifluoroacetamido)propanamide] | < 20 |  |  | > 1000 | > 10000 | < 100 | < 100 |  | 
COC(=O)N[C@@H](CC1CC1)C(=O)N(C)[C@@H](CC1CC1)C(=O)N1C[C@@]2(C[C@H]1C#N)Oc1cc(F)cc(F)c1NC2=O [Compound 75] |  |  | > 10000 | > 1000 | > 10000 | < 100 |  |  | 
CN(C(=O)[C@H](CC1CC1)NC(=O)C1(F)CC1)[C@@H](CC1CC1)C(=O)N1C[C@@]2(C[C@H]1C#N)Oc1cc(F)cc(F)c1NC2=O [Compound 76] |  |  |  | > 1000 | > 10000 | < 100 | < 100 |  | 
CN(C(=O)[C@H](CC1CC1)NC(=O)c1ccc(F)cc1)[C@@H](CC1CC1)C(=O)N1C[C@@]2(C[C@H]1C#N)Oc1cc(F)cc(F)c1NC2=O [Compound 77] |  |  |  | > 1000 | > 10000 | < 100 | < 100 |  | 
N#C[C@@H]1C[C@]2(CN1C(=O)[C@H](CC1CC1)NC(=O)[C@H](CC1CC1)NC(=O)C(F)(F)F)Oc1cc(F)cc(F)c1NC2=O [Compound 78] |  |  |  | > 1000 | > 10000 | 100 to 1000 | 100 to 1000 |  | 
CN(C(=O)c1cnn(-c2ccccc2C(F)(F)F)c1)[C@@H](CC1CC1)C(=O)N1C[C@@]2(C[C@H]1C#N)Oc1cc(F)cc(F)c1NC2=O [Compound 79] |  |  |  | > 1000 | > 10000 | 100 to 1000 | < 100 |  | 
CC(C)C[C@@H](C(=O)N1C[C@]2(C[C@H]1C#N)C(=O)Nc1ccccc1C2(C)O)N(C)C(=O)[C@H](C)NC(=O)C(F)(F)F (stereo partly shown) [Compound 80] | 200 to 2000 |  |  |  | > 10000 |  | < 100 |  | 
CN(C(=O)[C@H](CC1CC1)NC(=O)C(F)(F)F)[C@@H](CC1CC1)C(=O)N1C[C@@]2(C[C@H]1C#N)Oc1ncccc1NC2=O [Compound 91] | < 20 |  |  |  | > 10000 |  | < 100 |  | 
COc1cccc2[nH]c(C(=O)N(C)[C@@H](CC3CC3)C(=O)N3C[C@@]4(C[C@H]3C#N)Oc3cc(F)cc(F)c3NC4=O)cc12 [Compound 134] | < 20 | > 1000 | > 10000 | > 1000 |  |  |  |  | 
CN(C(=O)[C@H](CCCCN)NC(=O)C(F)(F)F)[C@@H](CC1CC1)C(=O)N1C[C@@]2(C[C@H]1C#N)Oc1cccnc1NC2=O [Compound 221] | < 20 |  | > 10000 |  | > 10000 |  |  |  | 
C[C@H](Nc1ncnc2ccccc12)C(=O)N(C)[C@@H](CC1CC1)C(=O)N1C[C@@]2(C[C@H]1C#N)Oc1cccnc1NC2=O [Compound 230] | < 20 |  |  |  | > 10000 |  | 100 to 1000 |  | 
CN(C(=O)c1ccc(=O)[nH]n1)[C@@H](CC1CC1)C(=O)N1C[C@@]2(C[C@H]1C#N)Oc1cccnc1NC2=O [Compound 231] |  |  | > 10000 |  | > 10000 |  |  |  | > 2000
Cc1ccc(C(=O)N(C)[C@@H](CC2CC2)C(=O)N2C[C@@]3(C[C@H]2C#N)Oc2cccnc2NC3=O)[nH]c1=O [Compound 232] | 200 to 2000 |  | > 10000 |  | > 10000 |  |  |  | 
